The values that follow come from patent US20260182217A1, “DISPLAY PANEL, ELECTRONIC DEVICE INCLUDING THE SAME, AND METHOD FOR MANUFACTURING THE DISPLAY PANEL” (priority 2024, published 2026).

The nature of this data set: physchem.

Broadly, the pKa is the negative logarithm of the acid dissociation constant. For `CCCCCCCCC(=O)O` [A11], the pKa worked out at 5.
